Starred links: 1 amine or outer side, 2 acyl side, 3 side chain; linkers in the order of their positions; H or OH if unused. Positions of bridges follow the written chain, without caps; N, C: chain ends. Non-standard residues stand in square brackets, D forms with d. Residues, ends and D or L forms follow the SMILES beside them. Triazole bridges read from a SMILES are 1,4-linked. *: point of attachment. βGlcNAc = CC(=O)N[C@@H]1[C@@H](O)[C@H](O)[C@@H](CO)O[C@H]1*; Abu(4-yl) = O=C([C@H](CC[*:3])N[*:1])[*:2]; Dap(N3) = [N-]=[N+]=NC[C@H](N)C(=O)O; Pra = C#CC[C@H](N)C(=O)O; Dap = NC[C@H](N)C(=O)O

For one data set, the system named is A549. Kind of data set: Anticancer activity against human A549 cells assessed as cell growth inhibition by CCK8 assay. It counts as functional, cell-based.
The next data set concerns alpha chymotrypsin. Kind of data set: Stability of the compound assessed as alpha chymotrypsin (unknown origin)-mediated proteolysis by measuring degradation half life measured for 24 hrs. It counts as ADME, Homo sapiens.
For data set [1], the system named is LNCaP C4-2B. Kind of data set: Anticancer activity against human LNCaP C4-2B cells assessed as cell growth inhibition by CCK8 assay. It counts as functional, cell-based. On the technique in general: Formazan colour is commonly taken as a measure of viable cells.
Data set [2] in a line: Ratio of test compound t1/2 to Brevinin-1BYa t1/2 for alpha chymotrypsin (unknown origin)-mediated proteolysis measured for 24 hrs. Format: ADME. To be noted: human.
The nature of data set [3]: Stability of the compound in aqueous DTT solution assessed as degradation half life measured for 48 hrs. Format: physicochemical.
Data set [4] concerns Huh-7. Kind of data set: Anticancer activity against human Huh-7 cells assessed as cell growth inhibition by CCK8 assay. Format: functional, cell-based.
A short description of data set [5]: Stability of the compound in aqueous DTT solution measured after 48 hrs. Format: physicochemical. To be noted: buffer.
The nature of data set [6]: Hemolytic activity in rabbit erythrocytes assessed as hemoglobin release. It counts as ADME, cell-based, Oryctolagus cuniculus, Erythrocyte.
Data set [7] can be described thus: Helicity of the compound in TFE aqueous solution by CD spectroscopy. Format: physicochemical. To be noted: buffer.
Data set [8] can be described thus: Helicity of the compound in TFE aqueous solution by CD spectroscopy relative to Brevinin-1BYa. It counts as physicochemical. To be noted: buffer.
In data set [9] the test system is LNCaP C4-2B. Kind of data set: Potency index, ratio of Brevinin-1BYa IC50 to test compound IC50 for human LNCaP C4-2B cells by CCK8 assay. Format: functional.
Data set [10] deals with Huh-7. Kind of data set: Potency index, ratio of Brevinin-1BYa IC50 to test compound IC50 for human Huh-7 cells by CCK8 assay. Format: functional.

Broadly, the IC50 is the point on the concentration scale where inhibition reaches its midpoint. The term half-life denotes the time in which the quantity being followed falls by half. In general, HC50 refers to the concentration that lyses half of the red blood cells. For `CC[C@H](C)[C@H](NC(=O)[C@H](CC(C)C)NC(=O)[C@H](C)NC(=O)[C@H](CO)NC(=O)[C@H](CC(C)C)NC(=O)[C@H](C)NC(=O)[C@H](C)NC(=O)[C@H](CCCCN)NC(=O)[C@H](Cc1ccccc1)NC(=O)CNC(=O)[C@@H]1CCCN1C(=O)[C@H](CCCCN)NC(=O)[C@H](CC(C)C)NC(=O)[C@H](Cc1ccccc1)NC(=O)[C@@H]1CSSC[C@H](N)C(=O)N[C@@H](CCCCN)C(=O)N[C@@H](CCCCN)C(=O)N[C@@H]([C@@H](C)O[C@@H]2O[C@H](CO)[C@@H](O)[C@H](O)[C@H]2NC(C)=O)C(=O)N[C@@H](C(C)C)C(=O)N[C@@H](CC(C)C)C(=O)N1)C(=O)N1CCC[C@H]1C(=O)N[C@@H](CC(C)C)C(=O)N[C@@H](Cc1ccccc1)C(=O)O` (H-CKKT(βGlcNAc)VLCFLKPGFKAALSALIPLF-OH; disulfide 1-7), the figures for the IC50 in the data set on A549, in the data set with LNCaP C4-2B [1] and in the data set on Huh-7 [4] were 20.9 µM, 20.5 µM and 23.4 µM, respectively. The half-life with alpha chymotrypsin was 4.33 h; in data set [3] it was 3.32 h. Further, in data set [2], the Ratio is listed as 1.67. Besides, the Stabilty entry in data set [5] is given as “Unstable”. The HC50 in data set [6] was above 100 µM.

`CC[C@H](C)[C@H](NC(=O)[C@H](CC(C)C)NC(=O)[C@H](C)NC(=O)[C@H](CO[C@@H]1O[C@H](CO)[C@@H](O)[C@H](O)[C@H]1NC(C)=O)NC(=O)[C@H](CC(C)C)NC(=O)[C@H](C)NC(=O)[C@H](C)NC(=O)[C@H](CCCCN)NC(=O)[C@H](Cc1ccccc1)NC(=O)CNC(=O)[C@@H]1CCCN1C(=O)[C@H](CCCCN)NC(=O)[C@H](CC(C)C)NC(=O)[C@H](Cc1ccccc1)NC(=O)[C@@H]1CSSC[C@H](N)C(=O)N[C@@H](CCCCN)C(=O)N[C@@H](CCCCN)C(=O)N[C@@H]([C@@H](C)O)C(=O)N[C@@H](C(C)C)C(=O)N[C@@H](CC(C)C)C(=O)N1)C(=O)N1CCC[C@H]1C(=O)N[C@@H](CC(C)C)C(=O)N[C@@H](Cc1ccccc1)C(=O)O` (H-CKKTVLCFLKPGFKAALS(βGlcNAc)ALIPLF-OH; disulfide 1-7): the values for the IC50 in the data set on A549, with LNCaP C4-2B [1] and in the data set with Huh-7 [4] were 32.6 µM, 18.7 µM and 39.6 µM, respectively. Further, the half-life with alpha chymotrypsin is 4.32 h; in data set [3], 3.31 h. Further, the Ratio in data set [2] was found to be 1.66. The Stabilty entry in [5] is reported as “Unstable”. The HC50 in data set [6] is above 100 µM.

Take `CC[C@H](C)[C@H](NC(=O)[C@H](CC(C)C)NC(=O)[C@H](C)NC(=O)[C@H](CO)NC(=O)[C@H](CC(C)C)NC(=O)[C@H](C)NC(=O)[C@H](C)NC(=O)[C@H](CCCCN)NC(=O)[C@H](Cc1ccccc1)NC(=O)CNC(=O)[C@@H]1CCCN1C(=O)[C@H](CCCCN)NC(=O)[C@H](CC(C)C)NC(=O)[C@H](Cc1ccccc1)NC(=O)[C@@H]1CSSC[C@H](N)C(=O)N[C@@H](CCCCN)C(=O)N[C@@H](CCCCN)C(=O)N[C@@H]([C@@H](C)O)C(=O)N[C@@H](C(C)C)C(=O)N[C@@H](CC(C)C)C(=O)N1)C(=O)N1CCC[C@H]1C(=O)N[C@@H](CC(C)C)C(=O)N[C@@H](Cc1ccccc1)C(=O)O` (H-CKKTVLCFLKPGFKAALSALIPLF-OH; disulfide 1-7): the IC50 in the data set on A549 is 9.24 µM; in the data set with LNCaP C4-2B [1], 14 µM; in the data set on Huh-7 [4], 14.9 µM. Besides, the half-life in the data set with alpha chymotrypsin was 1.62 h; in data set [3], 3.35 h. For the same molecule, the Stabilty entry in [5] is “Unstable”. In data set [7], the Activity is reported as 22.57%. Also, the HC50 in data set [6] turned out to be 94.4 µM.

As for `CC[C@H](C)[C@H](NC(=O)[C@H](CC(C)C)NC(=O)[C@H](C)NC(=O)[C@H](CO)NC(=O)[C@H](CC(C)C)NC(=O)[C@H](C)NC(=O)[C@H](C)NC(=O)[C@H](CCCCN)NC(=O)[C@H](Cc1ccccc1)NC(=O)CNC(=O)[C@@H]1CCCN1C(=O)[C@H](CCCCN)NC(=O)[C@H](CC(C)C)NC(=O)[C@H](Cc1ccccc1)NC(=O)[C@@H]1CCSC[C@H](N)C(=O)N[C@@H](CCCCN)C(=O)N[C@@H](CCCCN)C(=O)N[C@@H]([C@@H](C)O)C(=O)N[C@@H](C(C)C)C(=O)N[C@@H](CC(C)C)C(=O)N1)C(=O)N1CCC[C@H]1C(=O)N[C@@H](CC(C)C)C(=O)N[C@@H](Cc1ccccc1)C(=O)O` (H-CKKTVL[Abu(4-yl)]FLKPGFKAALSALIPLF-OH; thioether 1-7), the figures for the 50% inhibitory concentration (IC50) in the data set on A549, with LNCaP C4-2B [1] and in the data set with Huh-7 [4] were 11.2 µM, 9.23 µM and 10.8 µM, respectively. In addition, the half-life was 2.51 h with alpha chymotrypsin and above 12 h in data set [3]. Besides, in data set [5], the Stabilty result was “Stable”. Besides, the “fold change (FC)” value in [8] came to 2.7. Moreover, the Activity in data set [7] is recorded as 83.65%. Also, the “Ratio IC50” value in the data set on LNCaP C4-2B [9] stood at 1.5; in the data set on Huh-7 [10], 1.38. In addition, the 50% haemolytic concentration (HC50) in data set [6] came to 70.4 µM.

`CC[C@H](C)[C@H](NC(=O)[C@H](CC(C)C)NC(=O)[C@H](C)NC(=O)[C@H](CO)NC(=O)[C@H](CC(C)C)NC(=O)[C@H](C)NC(=O)[C@H](C)NC(=O)[C@H](CCCCN)NC(=O)[C@H](Cc1ccccc1)NC(=O)CNC(=O)[C@@H]1CCCN1C(=O)[C@H](CCCCN)NC(=O)[C@H](CC(C)C)NC(=O)[C@H](Cc1ccccc1)NC(=O)[C@@H]1CNC(=O)C[C@H](N)C(=O)N[C@@H](CCCCN)C(=O)N[C@@H](CCCCN)C(=O)N[C@@H]([C@@H](C)O)C(=O)N[C@@H](C(C)C)C(=O)N[C@@H](CC(C)C)C(=O)N1)C(=O)N1CCC[C@H]1C(=O)N[C@@H](CC(C)C)C(=O)N[C@@H](Cc1ccccc1)C(=O)O` (H-DKKTVL[Dap]FLKPGFKAALSALIPLF-OH; lactam 1-7): the results for the IC50 in the data set on A549, with LNCaP C4-2B [1] and in the data set on Huh-7 [4] were 17.1 µM, 16.8 µM and 16.6 µM, respectively. Besides, the half-life was 1.81 h in the data set with alpha chymotrypsin and above 12 h in [3]. The Stabilty entry in [5] was “Stable”. Besides, the Activity in data set [7] is recorded as 26.34%. Also, in data set [6], the HC50 was above 100 µM.

Regarding `CC[C@H](C)[C@H](NC(=O)[C@H](CC(C)C)NC(=O)[C@H](C)NC(=O)[C@H](CO)NC(=O)[C@H](CC(C)C)NC(=O)[C@H](C)NC(=O)[C@H](C)NC(=O)[C@H](CCCCN)NC(=O)[C@H](Cc1ccccc1)NC(=O)CNC(=O)[C@@H]1CCCN1C(=O)[C@H](CCCCN)NC(=O)[C@H](CC(C)C)NC(=O)[C@H](Cc1ccccc1)NC(=O)[C@@H]1Cn2cc(nn2)C[C@H](N)C(=O)N[C@@H](CCCCN)C(=O)N[C@@H](CCCCN)C(=O)N[C@@H]([C@@H](C)O)C(=O)N[C@@H](C(C)C)C(=O)N[C@@H](CC(C)C)C(=O)N1)C(=O)N1CCC[C@H]1C(=O)N[C@@H](CC(C)C)C(=O)N[C@@H](Cc1ccccc1)C(=O)O` (H-[Pra]KKTVL[Dap(N3)]FLKPGFKAALSALIPLF-OH; triazole 1-7), the IC50 in the data set with A549 turned out to be 21.7 µM; in the data set on LNCaP C4-2B [1] it was 12.6 µM; in the data set with Huh-7 [4], 11.3 µM. Also, the half-life is 2.93 h in the data set with alpha chymotrypsin and above 12 h in data set [3]. Further, the Stabilty result in [5] was “Stable”. Further, the HC50 in [6] was determined as 70.4 µM.

For the origin of these results see ChEMBL document CHEMBL4732193, “Design, synthesis, and anti-tumor activities of novel Brevinin-1BYa peptidomimetics” (Bioorg Med Chem Lett, 2021).
